Test results: patent US6066619A, “Non-aqueous protic peptide formulations” (Alza Corporation, priority 1999, dated 2000)

Experiment: Gelation of non-aqueous protic solvent formulations on adding polar aprotic solvent
Type: physicochemical
Conditions: adding polar aprotic solvents such as DMSO to non-aqueous protic solvent formulation
From the text: Thus, these solvents have an anti-gellant effect.

Gelation of the formulation, prevents gelation:
CC(C)C[C@H](NC(=O)[C@@H](COC(C)(C)C)NC(=O)[C@H](Cc1ccc(O)cc1)NC(=O)[C@H](CO)NC(=O)[C@H](Cc1c[nH]c2ccccc12)NC(=O)[C@H](Cc1cnc[nH]1)NC(=O)[C@@H]1CCC(=O)N1)C(=O)N[C@@H](CCCNC(=N)N)C(=O)N1CCC[C@H]1C(=O)NNC(N)=O [goserelin], CCNC(=O)[C@@H]1CCCN1C(=O)[C@H](CCCNC(=N)N)NC(=O)[C@H](CC(C)C)NC(=O)[C@@H](CC(C)C)NC(=O)[C@H](Cc1ccc(O)cc1)NC(=O)[C@H](CO)NC(=O)[C@H](Cc1c[nH]c2ccccc12)NC(=O)[C@H](Cc1c[nH]cn1)NC(=O)[C@@H]1CCC(=O)N1 [leuprolide], calcitonin
